Literature values in patent US7169586B2, “Mutant N-acetylglutamate synthase and method for L-arginine production” (Ajinomoto Co., Inc., priority 2000, dated 2007).
pKi: −log10 of the molar value.

Columns and labels:
NAGS = NAGS (Escherichia coli, UniProt P0A6C5); conditions: Leisinger and Haas 1975; read-out: Ki, inhibition of NAGS activity
argA expression = conditions: Cunin et al. 1986; Leisinger and Haas 1975

Chain of NAGS (P0A6C5 whole entry): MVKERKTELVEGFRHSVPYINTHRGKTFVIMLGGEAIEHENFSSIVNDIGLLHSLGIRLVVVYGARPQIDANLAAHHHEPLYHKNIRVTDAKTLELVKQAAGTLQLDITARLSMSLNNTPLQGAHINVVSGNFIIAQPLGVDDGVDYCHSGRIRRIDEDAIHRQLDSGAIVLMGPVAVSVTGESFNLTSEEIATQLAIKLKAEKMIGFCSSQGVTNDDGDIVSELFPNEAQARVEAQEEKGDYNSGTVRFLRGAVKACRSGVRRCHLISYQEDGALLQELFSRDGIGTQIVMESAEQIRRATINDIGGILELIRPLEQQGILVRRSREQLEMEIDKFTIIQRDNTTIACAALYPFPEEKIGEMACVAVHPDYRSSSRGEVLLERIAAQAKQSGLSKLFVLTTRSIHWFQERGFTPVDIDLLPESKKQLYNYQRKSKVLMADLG

N=C(N)NCCC[C@H](N)C(=O)O [L-Arginine]
pKi (NAGS): 4.70
repression ratio of argA expression (argA expression): greater than 250
